From the OligoGym collection
HELM strings list units from the 5' end as sugar, base in round brackets, then linkage (d deoxyribose, r ribose, m 2'-O-methyl, p phosphodiester). Strings are as the collection lists them; they lack the last nucleoside at the 3' end of the tested compound. [moe] = 2'-O-(2-methoxyethyl) (MOE); [sp] = phosphorothioate linkage; [m5C] = 5-methylcytosine

molecular target: APP; test: mouse, dose not given; conditions: ASO

How did the 3 h FOB score turn out when “RNA1{[moe]([m5C])[sp].[moe](T)p.[moe](A)p.[moe]([m5C])p.[moe]([m5C])[sp].d([m5C])[sp].d([m5C])[sp].d(T)[sp].d([m5C])[sp].d(G)[sp].d(G)[sp].d(A)[sp].d(A)[sp].d([m5C])[sp].d(T)[sp].[moe](T)p.[moe](G)p.[moe](T)[sp].[moe]([m5C])}$$$$ (last 3' nucleoside missing)” was run?
The 3 h FOB score was 0.75 score 0-7.

“RNA1{[moe]([m5C])[sp].[moe](T)p.[moe](G)p.[moe](G)p.[moe](G)[sp].d(T)[sp].d(A)[sp].d([m5C])[sp].d(A)[sp].d(T)[sp].d(A)[sp].d(A)[sp].d(T)[sp].d(A)[sp].d([m5C])[sp].[moe](T)p.[moe](A)p.[moe](G)[sp].[moe](G)}$$$$ (last 3' nucleoside missing)” was tested. Which 3 h FOB score did it give?
The 3 h FOB score was 0 score 0-7.

Which 3 h FOB score does the source give for “RNA1{[moe]([m5C])[sp].[moe](T)p.[moe](T)p.[moe](A)p.[moe]([m5C])[sp].d(A)[sp].d(A)[sp].d(A)[sp].d([m5C])[sp].d(T)[sp].d([m5C])[sp].d(A)[sp].d([m5C])[sp].d([m5C])[sp].d(A)[sp].[moe](A)p.[moe]([m5C])p.[moe](T)[sp].[moe](A)}$$$$ (last 3' nucleoside missing)” here?
The 3 h FOB score was 0 score 0-7.

“RNA1{[moe]([m5C])[sp].[moe](T)p.[moe](T)p.[moe](A)p.[moe]([m5C])[sp].d(A)[sp].d(T)[sp].d([m5C])[sp].d(A)[sp].d(T)[sp].d(T)[sp].d(T)[sp].d(T)[sp].d([m5C])[sp].d(T)[sp].[moe](T)p.[moe](G)p.[moe]([m5C])[sp].[moe](A)}$$$$ (last 3' nucleoside missing)” was tested. Which 3 h FOB score did it give?
Its 3 h FOB score is 1 score 0-7.

With “RNA1{[moe]([m5C])[sp].[moe](T)p.[moe](T)p.[moe](T)p.[moe](T)[sp].d(G)[sp].d(T)[sp].d(A)[sp].d(T)[sp].d([m5C])[sp].d(A)[sp].d(T)[sp].d(A)[sp].d(A)[sp].d(A)[sp].[moe](T)p.[moe](G)p.[moe](A)[sp].[moe](A)}$$$$ (last 3' nucleoside missing)” as the substance, how does the 3 h FOB score read?
The 3 h FOB score was 0.5 score 0-7.

“RNA1{[moe]([m5C])[sp].[moe](T)p.[moe](T)p.[moe](T)p.[moe]([m5C])[sp].d(T)[sp].d(A)[sp].d(T)[sp].d(T)[sp].d(T)[sp].d(A)[sp].d([m5C])[sp].d(T)[sp].d([m5C])[sp].d(A)[sp].[moe]([m5C])p.[moe](A)p.[moe](G)[sp].[moe]([m5C])}$$$$ (last 3' nucleoside missing)” was tested. Which 3 h FOB score did it give?
Its 3 h FOB score is 0 score 0-7.

With “RNA1{[moe]([m5C])[sp].[moe](T)p.[moe](T)p.[moe]([m5C])p.[moe](T)[sp].d(G)[sp].d([m5C])[sp].d(A)[sp].d(A)[sp].d(A)[sp].d(G)[sp].d(A)[sp].d(A)[sp].d([m5C])[sp].d(A)[sp].[moe]([m5C])p.[moe]([m5C])p.[moe](A)[sp].[moe](A)}$$$$ (last 3' nucleoside missing)” as the substance, how does the 3 h FOB score read?
The 3 h FOB score was 0.5 score 0-7.

“RNA1{[moe]([m5C])[sp].[moe](T)p.[moe](T)p.[moe]([m5C])p.[moe](T)[sp].d(T)[sp].d(A)[sp].d(T)[sp].d([m5C])[sp].d(A)[sp].d(G)[sp].d([m5C])[sp].d(T)[sp].d(T)[sp].d(T)[sp].[moe](A)p.[moe](G)p.[moe](G)[sp].[moe]([m5C])}$$$$ (last 3' nucleoside missing)” was tested. Which 3 h FOB score did it give?
Its 3 h FOB score is 1 score 0-7.

Which 3 h FOB score does the source give for “RNA1{[moe]([m5C])[sp].[moe](T)p.[moe](T)p.[moe]([m5C])p.[moe]([m5C])[sp].d([m5C])[sp].d(A)[sp].d(T)[sp].d(T)[sp].d([m5C])[sp].d(T)[sp].d([m5C])[sp].d(T)[sp].d([m5C])[sp].d(A)[sp].[moe](T)p.[moe](G)p.[moe](A)[sp].[moe]([m5C])}$$$$ (last 3' nucleoside missing)” here?
The 3 h FOB score was 0.25 score 0-7.

How did the 3 h FOB score turn out when “RNA1{[moe]([m5C])[sp].[moe](T)p.[moe](T)p.[moe]([m5C])p.[moe]([m5C])p.[moe]([m5C])p.d(A)[sp].d(T)[sp].d(T)[sp].d([m5C])[sp].d(T)[sp].d([m5C])[sp].d(T)[sp].d([m5C])[sp].d(A)[sp].d(T)[sp].[moe](G)p.[moe](A)[sp].[moe]([m5C])}$$$$ (last 3' nucleoside missing)” was run?
Its 3 h FOB score is 0 score 0-7.

With “RNA1{[moe]([m5C])[sp].[moe](T)p.[moe]([m5C])p.[moe](T)p.[moe](T)[sp].d(G)[sp].d(T)[sp].d(T)[sp].d(A)[sp].d(A)[sp].d(A)[sp].d(T)[sp].d([m5C])[sp].d(A)[sp].d(T)[sp].[moe](G)p.[moe](G)p.[moe]([m5C])[sp].[moe](A)}$$$$ (last 3' nucleoside missing)” as the substance, how does the 3 h FOB score read?
Its 3 h FOB score is 0 score 0-7.

Which 3 h FOB score does the source give for “RNA1{[moe]([m5C])[sp].[moe](T)p.[moe]([m5C])p.[moe](T)p.[moe]([m5C])[sp].d(A)[sp].d(T)[sp].d(A)[sp].d(G)[sp].d(T)[sp].d([m5C])[sp].d(T)[sp].d(T)[sp].d(A)[sp].d(A)[sp].[moe](T)p.[moe](T)p.[moe]([m5C])[sp].[moe]([m5C])}$$$$ (last 3' nucleoside missing)” here?
Its 3 h FOB score is 0.25 score 0-7.

How did the 3 h FOB score turn out when “RNA1{[moe]([m5C])[sp].[moe](T)p.[moe]([m5C])p.[moe](T)p.[moe]([m5C])p.[moe](A)[sp].d(T)[sp].d(A)[sp].d(G)[sp].d(T)[sp].d([m5C])[sp].d(T)[sp].d(T)[sp].d(A)[sp].d(A)[sp].d(T)[sp].[moe](T)p.[moe]([m5C])[sp].[moe]([m5C])}$$$$ (last 3' nucleoside missing)” was run?
The 3 h FOB score was 0.75 score 0-7.

“RNA1{[moe]([m5C])[sp].[moe](T)p.[moe]([m5C])p.[moe]([m5C])p.[moe](A)[sp].d(A)[sp].d(T)[sp].d(T)[sp].d(T)[sp].d(T)[sp].d(A)[sp].d(A)[sp].d([m5C])[sp].d(T)[sp].d(T)[sp].[moe](G)p.[moe]([m5C])p.[moe](A)[sp].[moe]([m5C])}$$$$ (last 3' nucleoside missing)” was tested. Which 3 h FOB score did it give?
The 3 h FOB score was 2.75 score 0-7.

For “RNA1{[moe]([m5C])[sp].[moe](T)p.[moe]([m5C])p.[moe]([m5C])p.[moe](A)p.[moe](A)[sp].d(T)[sp].d(T)[sp].d(T)[sp].d(T)[sp].d(A)[sp].d(A)[sp].d([m5C])[sp].d(T)[sp].d(T)[sp].d(G)[sp].[moe]([m5C])p.[moe](A)[sp].[moe]([m5C])}$$$$ (last 3' nucleoside missing)”, which 3 h FOB score is on record?
Its 3 h FOB score is 0 score 0-7.

Which 3 h FOB score does the source give for “RNA1{[moe]([m5C])[sp].[moe]([m5C])[sp].[moe]([m5C])p.[moe](A)p.[moe]([m5C])[sp].d(T)[sp].d(T)[sp].d([m5C])[sp].d([m5C])[sp].d([m5C])[sp].d(A)[sp].d(T)[sp].d(T)[sp].d([m5C])[sp].d(T)[sp].[moe](G)p.[moe](G)p.[moe](A)[sp].[moe]([m5C])}$$$$ (last 3' nucleoside missing)” here?
Its 3 h FOB score is 0 score 0-7.

How did the 3 h FOB score turn out when “RNA1{[moe]([m5C])[sp].[moe]([m5C])p.[moe](A)p.[moe](A)p.[moe](A)[sp].d(G)[sp].d(A)[sp].d(T)[sp].d(T)[sp].d([m5C])[sp].d([m5C])[sp].d(A)[sp].d([m5C])[sp].d(T)[sp].d(T)[sp].[moe](T)p.[moe]([m5C])p.[moe](T)[sp].[moe]([m5C])}$$$$ (last 3' nucleoside missing)” was run?
Its 3 h FOB score is 0 score 0-7.

With “RNA1{[moe]([m5C])[sp].[moe]([m5C])p.[moe](A)p.[moe](A)p.[moe](G)[sp].d(T)[sp].d(A)[sp].d(T)[sp].d(T)[sp].d(T)[sp].d(T)[sp].d([m5C])[sp].d([m5C])[sp].d(T)[sp].d(G)[sp].[moe]([m5C])p.[moe](A)p.[moe](T)[sp].[moe]([m5C])}$$$$ (last 3' nucleoside missing)” as the substance, how does the 3 h FOB score read?
The 3 h FOB score was 0 score 0-7.

With “RNA1{[moe]([m5C])[sp].[moe]([m5C])p.[moe](A)p.[moe](T)p.[moe]([m5C])[sp].d(T)[sp].d(T)[sp].d(T)[sp].d(A)[sp].d(T)[sp].d(T)[sp].d([m5C])[sp].d(T)[sp].d(A)[sp].d(T)[sp].[moe](G)p.[moe](A)p.[moe](G)[sp].[moe]([m5C])}$$$$ (last 3' nucleoside missing)” as the substance, how does the 3 h FOB score read?
The 3 h FOB score was 0.75 score 0-7.

How did the 3 h FOB score turn out when “RNA1{[moe]([m5C])[sp].[moe]([m5C])p.[moe](A)p.[moe](T)p.[moe]([m5C])[sp].d(T)[sp].d(T)[sp].d([m5C])[sp].d(A)[sp].d([m5C])[sp].d(T)[sp].d(T)[sp].d([m5C])[sp].d(A)[sp].d(G)[sp].[moe](A)p.[moe](G)p.[moe](A)[sp].[moe](T)}$$$$ (last 3' nucleoside missing)” was run?
Its 3 h FOB score is 0.5 score 0-7.

For “RNA1{[moe]([m5C])[sp].[moe]([m5C])p.[moe](A)p.[moe]([m5C])p.[moe](G)[sp].d(A)[sp].d([m5C])[sp].d([m5C])[sp].d(T)[sp].d(T)[sp].d(A)[sp].d([m5C])[sp].d(A)[sp].d([m5C])[sp].d(T)[sp].[moe](A)p.[moe](G)p.[moe](G)[sp].[moe](T)}$$$$ (last 3' nucleoside missing)”, which 3 h FOB score is on record?
The 3 h FOB score was 0 score 0-7.

With “RNA1{[moe]([m5C])[sp].[moe]([m5C])p.[moe](T)p.[moe](T)p.[moe](G)[sp].d([m5C])[sp].d(T)[sp].d(A)[sp].d(T)[sp].d(T)[sp].d([m5C])[sp].d(A)[sp].d(T)[sp].d(T)[sp].d(T)[sp].[moe](T)p.[moe](T)p.[moe]([m5C])[sp].[moe](A)}$$$$ (last 3' nucleoside missing)” as the substance, how does the 3 h FOB score read?
The 3 h FOB score was 0 score 0-7.

Which 3 h FOB score does the source give for “RNA1{[moe]([m5C])[sp].[moe]([m5C])p.[moe](T)p.[moe](T)p.[moe](T)[sp].d(G)[sp].d(T)[sp].d(T)[sp].d(T)[sp].d(G)[sp].d(A)[sp].d(A)[sp].d([m5C])[sp].d([m5C])[sp].d([m5C])[sp].[moe](A)p.[moe]([m5C])p.[moe](A)[sp].[moe](T)}$$$$ (last 3' nucleoside missing)” here?
The 3 h FOB score was 0 score 0-7.

Which 3 h FOB score does the source give for “RNA1{[moe]([m5C])[sp].[moe]([m5C])p.[moe](T)p.[moe](T)p.[moe](T)[sp].d([m5C])[sp].d(A)[sp].d(A)[sp].d(T)[sp].d(A)[sp].d(T)[sp].d(T)[sp].d(G)[sp].d(T)[sp].d(T)[sp].[moe]([m5C])p.[moe](T)p.[moe](T)[sp].[moe]([m5C])}$$$$ (last 3' nucleoside missing)” here?
Its 3 h FOB score is 3.33 score 0-7.

With “RNA1{[moe]([m5C])[sp].[moe]([m5C])p.[moe](T)p.[moe](T)p.[moe]([m5C])[sp].d(T)[sp].d(T)[sp].d(A)[sp].d([m5C])[sp].d(A)[sp].d(A)[sp].d(T)[sp].d(T)[sp].d(A)[sp].d(T)[sp].[moe](G)p.[moe]([m5C])p.[moe](T)[sp].[moe]([m5C])}$$$$ (last 3' nucleoside missing)” as the substance, how does the 3 h FOB score read?
The 3 h FOB score was 1 score 0-7.
